Target: recombinant IL4I1 (Homo sapiens (Human), UniProt Q96RQ9)
Test: IL4I1 Enzymatic Assay (Amplex Red/HRP coupled fluorescence detection of H2O2)
Assay type: biochemical
Settings: 240 min; recombinant IL4I1, four-hour pre-incubation with compound
Summary of the method: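 Ten-point, 1:3 compound titrations were fitted by four-parameter sigmoidal regression to give EC50. Resorufin fluorescence (544/590 nm) from Amplex Red/HRP-coupled H2O2 detection was read 120 min after adding 1 mM each aromatic amino acid to 1 nM IL4I1, following a 4 h compound pre-incubation in pH 7.0 Hepes buffer.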

Chain of recombinant IL4I1 (Q96RQ9 22-567): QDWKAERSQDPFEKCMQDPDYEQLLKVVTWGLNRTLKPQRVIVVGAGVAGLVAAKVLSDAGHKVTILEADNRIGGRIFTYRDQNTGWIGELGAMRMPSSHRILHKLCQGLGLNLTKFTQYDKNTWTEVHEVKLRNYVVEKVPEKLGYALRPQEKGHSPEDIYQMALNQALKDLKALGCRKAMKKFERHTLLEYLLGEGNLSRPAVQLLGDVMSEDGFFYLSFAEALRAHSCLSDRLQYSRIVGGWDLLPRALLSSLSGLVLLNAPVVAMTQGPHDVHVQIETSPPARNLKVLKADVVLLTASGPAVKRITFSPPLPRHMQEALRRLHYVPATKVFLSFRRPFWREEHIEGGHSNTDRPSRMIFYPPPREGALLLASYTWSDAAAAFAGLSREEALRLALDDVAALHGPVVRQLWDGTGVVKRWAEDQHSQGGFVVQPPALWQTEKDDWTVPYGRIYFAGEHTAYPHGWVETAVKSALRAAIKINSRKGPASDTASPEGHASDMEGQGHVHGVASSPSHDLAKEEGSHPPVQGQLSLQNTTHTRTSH

Row | Compound | EC50 [nM]
1 | O=c1c(=O)n(C2(CF)CC2)ccn1Cc1cc(-c2cccnc2)on1 [Example 253, 1-(1-(fluoromethyl)cyclopropyl)-4-((5-(pyridin-3-yl)isoxazol-3-yl)methyl)-1,4-dihydropyrazine-2,3-dione] | 45
2 | O=C1C(=O)N(C23CC(C2)C3)CCN1Cc1ccc(-n2nccn2)cc1 [Example 406, 1-(4-(2H-1,2,3-triazol-2-yl)benzyl)-4-(bicyclo[1.1.1]pentan-1-yl)piperazine-2,3-dione] | 15
3 | N#CC1(n2ccn(Cc3ccc(-c4ccccc4F)nn3)c(=O)c2=O)CC1 [Example 198, 1-(4-((6-(2-fluorophenyl)pyridazin-3-yl)methyl)-2,3-dioxo-3,4-dihydropyrazin-1(2H)-yl)cyclopropane-1-carbonitrile] | 76
4 | O=c1c(=O)n([C@H]2C[C@H]3C[C@H]3C2)ccn1Cc1ccc(-c2cccnc2)nn1 [Example 416, 1-((cis)-bicyclo[3.1.0]hexan-3-yl)-4-((6-(pyridin-3-yl)pyridazin-3-yl)methyl)-1,4-dihydropyrazine-2,3-dione] | 28
5 | O=C1C(=O)N(C2CCC2)CCN1Cc1cc(-c2cccc(F)c2)no1 [Example 158, 1-cyclobutyl-4-((3-(3-fluorophenyl)isoxazol-5-yl)methyl)piperazine-2,3-dione] | 4
6 | O=C1C(=O)N(C23CC(C2)C3)CCN1Cc1nnc(-c2ccccc2Cl)s1 [Example 179, 1-(bicyclo[1.1.1]pentan-1-yl)-4-((5-(2-chlorophenyl)-1,3,4-thiadiazol-2-yl)methyl)piperazine-2,3-dione] | 13
7 | O=c1c(=O)n(C2CCCC2)ccn1Cc1cc(-c2ccccc2)no1 [Example 358B, 1-cyclopentyl-4-((3-phenylisoxazol-5-yl)methyl)-1,4-dihydropyrazine-2,3-dione] | 1
8 | CC1(n2ccn(Cc3ccc(-c4nccs4)nn3)c(=O)c2=O)CC1 [Example 377, 1-(1-methylcyclopropyl)-4-((6-(thiazol-2-yl)pyridazin-3-yl)methyl)-1,4-dihydropyrazine-2,3-dione] | 71
9 | O=C1C(=O)N(C23CC(C2)C3)CCN1Cc1cnc(-c2ccccc2)nc1 [Example 110, 1-(bicyclo[1.1.1]pentan-1-yl)-4-((2-phenylpyrimidin-5-yl)methyl)piperazine-2,3-dione] | 27
10 | N#CC1(n2ccn(Cc3ccc(-n4nccn4)nc3)c(=O)c2=O)CC1 [Example 391, 1-(4-((6-(2H-1,2,3-triazol-2-yl)pyridin-3-yl)methyl)-2,3-dioxo-3,4-dihydropyrazin-1(2H)-yl)cyclopropane-1-carbonitrile] | 170
11 | O=C1C(=O)N(c2ccccc2)CCN1Cc1ncc(-c2ccccc2)cn1 [Example 292, 1-phenyl-4-((5-phenylpyrimidin-2-yl)methyl)piperazine-2,3-dione] | 64
12 | O=c1c(=O)n([C@H]2C[C@H]3C[C@H]3C2)ccn1Cc1cc(-c2cccc(F)c2)on1 [Example 67, 1-((cis)-bicyclo[3.1.0]hexan-3-yl)-4-((5-(3-fluorophenyl)isoxazol-3-yl)methyl)-1,4-dihydropyrazine-2,3-dione] | 1
13 | O=C1C(=O)N(C23CC(F)(C2)C3)CCN1Cc1ccc(-c2ccccn2)nn1 [Example 226] | 78
14 | N#Cc1ccccc1-c1nnc(CN2CCN(C34CC(C3)C4)C(=O)C2=O)s1 [Example 436, 2-(5-((4-(bicyclo[1.1.1]pentan-1-yl)-2,3-dioxopiperazin-1-yl)methyl)-1,3,4-thiadiazol-2-yl)benzonitrile] | 20
15 | O=C1C(=O)N(C2CCC2)CCN1Cc1cc(-c2ccc(F)cc2)no1 [Example 150, 1-cyclobutyl-4-((3-(4-fluorophenyl)isoxazol-5-yl)methyl)piperazine-2,3-dione] | 3
16 | O=C1C(=O)N(C2CCCC2)CCN1Cc1ccc(N2CCC(F)(F)C2)nc1 [Example 392, 1-cyclopentyl-4-((6-(3,3-difluoropyrrolidin-1-yl)pyridin-3-yl)methyl)piperazine-2,3-dione] | 31
17 | O=C1C(=O)N([C@H]2C[C@H](c3ccccc3)C2)CCN1Cc1ccc(-c2ccccc2)nn1 [Example 96A, trans-1-(3-phenylcyclobutyl)-4-((6-phenylpyridazin-3-yl)methyl)piperazine-2,3-dione] | 14
18 | O=c1c(=O)n(C2(CF)CC2)ccn1Cc1ccc(-n2nccn2)nc1 [Example 264, 1-((6-(2H-1,2,3-triazol-2-yl)pyridin-3-yl)methyl)-4-(1-(fluoromethyl)cyclopropyl)-1,4-dihydropyrazine-2,3-dione] | 73
19 | O=C1C(=O)N([C@H]2C[C@@H](c3ccccc3)C2)CCN1Cc1ccc(-n2nccn2)nn1 [Example 326, 1-((6-(2H-1,2,3-triazol-2-yl)pyridazin-3-yl)methyl)-4-((cis)-3-phenylcyclobutyl)piperazine-2,3-dione] | 20
20 | O=C1C(=O)N([C@H]2C[C@H]3C[C@H]3C2)CCN1Cc1ncc(-c2ccccc2)cn1 [Example 278, 1-((cis)-bicyclo[3.1.0]hexan-3-yl)-4-((5-phenylpyrimidin-2-yl)methyl)piperazine-2,3-dione] | 16
21 | O=c1c(=O)n(C23CC(C2)C3)ccn1Cc1nnc(-c2ccc(F)cc2)s1 [Example 36, 1-(bicyclo[1.1.1]pentan-1-yl)-4-((5-(4-fluorophenyl)-1,3,4-thiadiazol-2-yl)methyl)-1,4-dihydropyrazine-2,3-dione] | 6
22 | O=c1c(=O)n(C23CC(F)(C2)C3)ccn1Cc1cc(-c2cccnc2)on1 [Example 211, 1-(3-fluorobicyclo[1.1.1]pentan-1-yl)-4-((5-(pyridin-3-yl)isoxazol-3-yl)methyl)-1,4-dihydropyrazine-2,3-dione] | 61
23 | O=c1c(=O)n(C23CC(F)(C2)C3)ccn1Cc1cc(-c2cccnc2)no1 [Example 224, 1-(3-fluorobicyclo[1.1.1]pentan-1-yl)-4-((3-(pyridin-3-yl)isoxazol-5-yl)methyl)-1,4-dihydropyrazine-2,3-dione] | 101
24 | CC1CN(Cc2ccc(-n3nccn3)cn2)C(=O)C(=O)N1C1CCC1 (centres unmarked) [Example 178, 1-((5-(2H-1,2,3-triazol-2-yl)pyridin-2-yl)methyl)-4-cyclobutyl-5-methylpiperazine-2,3-dione] | 52
25 | O=C1C(=O)N(C2CCCC2)CCN1Cc1cc(-c2ccc(F)cc2)no1 [Example 162, 1-cyclopentyl-4-((3-(4-fluorophenyl)isoxazol-5-yl)methyl)piperazine-2,3-dione] | 4
26 | O=C1C(=O)N(C2CCC2)CCN1CC12CC(c3ccccn3)(C1)C2 [Example 177, 1-cyclobutyl-4-((3-(pyridin-2-yl)bicyclo[1.1.1]pentan-1-yl)methyl)piperazine-2,3-dione] | 84
27 | O=c1c(=O)n(C23CC(C2)C3)ccn1Cc1cnc(-c2ccccc2)nc1 [Example 111, 1-(bicyclo[1.1.1]pentan-1-yl)-4-((2-phenylpyrimidin-5-yl)methyl)-1,4-dihydropyrazine-2,3-dione] | 8
28 | O=C1C(=O)N(C2CCCC2)CCN1Cc1ncc(-c2nccs2)cn1 [Example 361, 1-cyclopentyl-4-((5-(thiazol-2-yl)pyrimidin-2-yl)methyl)piperazine-2,3-dione] | 96
29 | O=C1C(=O)N(C2CCCC2)CCN1Cc1ccc(-c2ccccc2)nc1 [Example 97, 1-cyclopentyl-4-((6-phenylpyridin-3-yl)methyl)piperazine-2,3-dione] | 5
